This passage reports inhibition and melting point results from patent publication US6492370B1, “Urea derivatives and pharmaceutical compositions thereof” (Santen Pharmaceutical Co., Ltd., priority 1998, dated 2002).

The term inhibition denotes the change of the read-out against control, counted positive when it falls. One may read the melting point as the temperature of the solid-liquid transition.

Data set [1] concerns TNF-α production from human monocytic line THP-1 by LPS stimulation. Put plainly: In vitro test: TNF-α production from human monocytic line THP-1 by LPS stimulation. Type of data set: cell-based. Conditions: 2 h; test compound 10^−5 M, THP-1 cells 10^6/ml, LPS 2 μg/ml, 37° C. for two hours, human TNF-α specific ELISA; read-out: Inhibition rate (%) (TNF-α inhibition rates). The method, then: Inhibitory effects on TNF-α production induced by lipopolysaccharide (LPS) stimulation were studied by in vitro or in vivo tests according to the method of McGeehan et al. (Nature, 370, […](1994)).
Analyses were carried out by measuring TNF-α production from human monocytic line THP-1 by LPS stimulation.
As a medium, an RPMI1640medium containing a fetal bovine serum(10%), L-glutamine (2 mM), 2-mercaptoethanol (50 μM), penicillin (50 units/ml) and streptomycin (50 μg/ml) was used.
With respect to cells, human monocytic line THP-1 cells cultured in the above-mentioned medium were centrifuged at 100×g for five minutes to remove supernatant and then re-suspended in the medium. With respect to LPS, LPS from S. Typhimurium was dissolved in purified water and then diluted with the medium. Test compounds were dissolved in dimethyl sulfoxide (DMSO) and then diluted with the medium.
The cells (10^6/ml), LPS (2 μg/ml) and the test compound (10^−5 M) prepared as mentioned above were mixed, and this mixture was incubated at 37° C. for two hours and then centrifuged at 1000×g […] in cultured supernatant were measured with a human TNF-α specific ELISA kit. TNF-α production was not observed in the cultured supernatant in the absence of LPS (control).
TNF-α production inhibition rates of the test compounds were determined by the following equation.
Inhibition rate (%)=[(A-B)/A]×100
A: TNF-α level in supernatant of culture medium in the absence of test compound
B: TNF-α level in supernatant of culture medium in the presence of test compound
On the technique in general: An ELISA detects its analyte on a solid surface through an enzyme-linked reagent.

For the compound `CC(=O)SCCN(CCc1ccccc1)C(=O)N[C@@H](Cc1ccc(-c2ccccc2)c([N+](=O)[O-])c1)C(=O)NCCN(C)C` [Compound No. 27-19, (2S)-2-[3-[2-(Acetylthio)ethyl]-3-phenethylureido]-N-[2-(dimethylamino)ethyl]-3-(2-nitro-4-biphenylyl)propionamide], the melting point is 90 °C. The inhibition at 10 µM in data set [1] was 93.5%.
Regarding `CC(=O)SCCN(CCc1ccccc1)C(=O)N[C@@H](Cc1ccc([N+](=O)[O-])cc1)C(=O)NCCN(C)C1CCCCC1` [Compound No. 27-46, (2S)-2-[3-[2-(Acetylthio)ethyl]-3-phenethylureido]-N-[2-[(N-methyl)cyclohexylamino]ethyl]-3-(4-nitrophenyl)propionamide], the melting point came to 90 °C. In addition, the inhibition at 10 µM in data set [1] was found to be 100%.
For `CCN(CC)CCNC(=O)[C@H](Cc1ccc([N+](=O)[O-])cc1)NC(=O)N(CCSC(C)=O)CCc1ccccc1` [Compound No. 27-47, (2S)-2-[3-[2-(Acetylthio)ethyl]-3-phenethylureido]-N-[2-(diethylamino)ethyl]-3-(4-nitrophenyl)propionamide] the same measures were 65 °C and 100%.
